The subject of assay [1] is Cdc7 (pS53MCM2 levels in SW48 cells). Description: Cdc7 Cell Pharmacodynamics Assay Method 3: pS53MCM2 levels in SW48 cells, 6 hours. It is filed as cell-based. Conditions: Homo sapiens, SW48, 6 h, read-out: Biomarker Method 3 (pEC50) (converted).
Another assay has as its target Cdc7/ASK (Homo sapiens, UniProt O00311). Briefly: Cdc7 Biochemical Assay Method 4: off-chip mobility shift assay (Carna Biosciences). On the set-up: purchased Carna Biosciences; host or cells: baculovirus expression system. Conditions: off-chip MSA, MCM2 peptide, 5 hours; read-out: Biochemical Method 4 (pIC50) (converted). The method, then:
This protocol describes a method for assaying Cdc7/ASK for activity. The assay is an off-chip mobility shift assay (MSA) run at Carna Biosciences.
1. Preparation of Test Compound Solution.
The test compound was dissolved in and diluted with dimethylsulfoxide (DMSO) to achieve 100-fold higher concentration which was specified by the sponsor. Then the solution was further 25-fold diluted with assay buffer to make the final test compound solution. Reference compounds for assay control were prepared similarly.
Cdc7/ASK: Full-length human Cdc7 [1-574(end) amino acids of accession number NP_003494.1] was co-expressed as N-terminal GST-fusion protein (92 kDa) with Dbf4(ASK) [1-674(end) amino acids of accession number NP_006707.1] using baculovirus expression system. GST-Cdc7 was purified by using glutathione sepharose chromatography.
3. Assay Reagents and Procedures
Off-chip Mobility Shift Assay (MSA)
1) The […] of ×2 kinase solution were prepared with assay buffer (20 mM HEPES, 0.01% Triton X-100, 1 mM DTT, pH 7.5) and mixed and incubated in a well of polypropylene 384 well microplate for 5 hours at room temperature. 2) […] of Termination Buffer (QuickScout Screening Assist MSA; Carna Biosciences) was added to the well. 3) The reaction mixture was applied to LabChip system (Perkin Elmer), and the product and substrate peptide peaks were separated and quantitated. 4) The kinase reaction was evaluated by the product ratio calculated from peak heights of product (P) and substrate (S) peptides (P/(P+S)).
Reaction time is 5 hours.
The readout value of reaction control (complete reaction mixture) was set as a 0% inhibition, and the readout value of background (Enzyme(−)) was set as a 100% inhibition, then the percent inhibition of each test solution was calculated.
IC50 value was calculated from concentration vs. % Inhibition curves by fitting to a four parameter logistic curve.

Structures can show the parent of a compound that is named as a salt.

Five molecules from US10919896B2, “Preparation and uses of pyrimidinone derivatives” (Cancer Research Technology Limited, priority 2016, dated 2021) can be followed below.

Cdc7/ASK, sequence (O00311 whole entry): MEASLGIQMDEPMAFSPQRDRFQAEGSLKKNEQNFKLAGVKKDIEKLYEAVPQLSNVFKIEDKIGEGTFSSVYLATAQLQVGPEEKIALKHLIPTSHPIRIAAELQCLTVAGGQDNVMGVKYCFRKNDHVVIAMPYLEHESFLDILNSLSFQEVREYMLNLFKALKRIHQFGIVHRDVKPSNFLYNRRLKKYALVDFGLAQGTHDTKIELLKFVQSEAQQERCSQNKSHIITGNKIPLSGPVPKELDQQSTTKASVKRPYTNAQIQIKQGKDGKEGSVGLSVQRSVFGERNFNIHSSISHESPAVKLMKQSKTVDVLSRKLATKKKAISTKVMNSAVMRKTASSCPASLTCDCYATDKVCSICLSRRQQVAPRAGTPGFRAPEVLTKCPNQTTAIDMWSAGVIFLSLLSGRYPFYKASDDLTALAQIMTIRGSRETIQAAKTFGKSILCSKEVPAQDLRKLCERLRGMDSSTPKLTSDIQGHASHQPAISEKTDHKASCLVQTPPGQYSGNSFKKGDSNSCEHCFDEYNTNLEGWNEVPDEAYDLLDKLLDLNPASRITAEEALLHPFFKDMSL
Cdc7/ASK, sequence (Q9UBU7 whole entry partner): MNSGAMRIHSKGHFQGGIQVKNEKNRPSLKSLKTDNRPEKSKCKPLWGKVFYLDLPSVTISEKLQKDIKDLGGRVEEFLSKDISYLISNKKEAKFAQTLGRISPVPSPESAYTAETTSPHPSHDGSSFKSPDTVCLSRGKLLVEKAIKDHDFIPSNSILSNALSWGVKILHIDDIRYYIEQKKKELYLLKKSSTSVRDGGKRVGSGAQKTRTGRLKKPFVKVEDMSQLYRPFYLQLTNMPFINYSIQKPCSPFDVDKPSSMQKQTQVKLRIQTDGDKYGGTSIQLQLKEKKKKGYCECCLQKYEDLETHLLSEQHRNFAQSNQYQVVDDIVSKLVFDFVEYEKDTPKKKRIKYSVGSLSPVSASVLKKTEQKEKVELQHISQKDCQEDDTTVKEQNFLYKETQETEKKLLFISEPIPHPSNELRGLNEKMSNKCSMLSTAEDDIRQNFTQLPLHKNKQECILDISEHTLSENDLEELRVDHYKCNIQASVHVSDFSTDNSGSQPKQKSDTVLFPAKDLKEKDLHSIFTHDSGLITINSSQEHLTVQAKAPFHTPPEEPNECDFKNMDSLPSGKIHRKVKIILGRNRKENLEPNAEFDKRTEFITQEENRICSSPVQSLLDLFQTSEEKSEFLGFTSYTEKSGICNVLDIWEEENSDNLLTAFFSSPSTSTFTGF

As to `C[C@@H]1CNCCN1c1nc(-c2ccnc(F)c2)[nH]c(=O)c1Cl` [Compound 323], in assay [1], the EC50 was 0.0794 µM. Moreover, on Cdc7/ASK, the IC50 was 0.00309 µM. `O=c1[nH]c(-c2ccnc(F)c2)nc(N2CCCC(F)(F)C2)c1Cl` [Compound 90, 5-chloro-4-(3,3-difluoro-1-piperidyl)-2-(2-fluoro-4-pyridyl)-1H-pyrimidin-6-one]: the EC50 in assay [1] was 0.589 µM. Regarding `O=c1[nH]c(-c2ccnc(F)c2)nc(N2CCNCC(F)(F)C2)c1Cl` [Compound 312, 5-chloro-4-(6,6-difluoro-1,4-diazepan-1-yl)-2-(2-fluoro-4-pyridyl)-1H-pyrimidin-6-one hydrochloride], in assay [1], the EC50 is 0.145 µM. Further, the IC50 on Cdc7/ASK was 0.00372 µM.

Regarding `O=c1[nH]c(-c2ccncc2)nc(N2CCN[C@H](C(F)(F)F)C2)c1Cl` [Compound 139], the EC50 in assay [1] is 4.07 µM. On the same count and under the same terms, with `O=c1[nH]c(-c2ccncc2)nc(N2CCN[C@@H](C(F)(F)F)C2)c1Cl` [Compound 180] the figure was 0.339 µM.
